This note sets out measurements from ChEMBL document CHEMBL3124938, “Synthesis and biological evaluation of positron emission tomography radiotracers targeting serotonin 4 receptors in brain: [18F]MNI-698 and [18F]MNI-699” (Bioorg Med Chem Lett, 2013).

A word on the Kd: it is the equilibrium constant for the complex coming apart. Usually Ki stands for the dissociation constant of the complex between target and ligand, obtained from inhibition or displacement. A word on the logD: it is the decadic logarithm of the distribution of all forms, ionised or not, between an organic phase and buffer at a given pH.

Data set [1] addresses T1, 5-hydroxytryptamine receptor 4 (Rattus norvegicus, UniProt Q62758). Briefly: Binding affinity to 5HT4 receptor in rat striatal membranes. The format is cell membranes, Striatum, Membrane.
Data set [2] addresses T1, 5-hydroxytryptamine receptor 4. Briefly: Displacement of [3H]GR113808 from 5HT4 receptor in Sprague-Dawley rat striatal membranes after 1 hr by […]. Details: species or system Striatum, Membrane; call rule not given here.
Data set [3] in a line: Standardized uptake value ratio in rhesus monkey substantia nigra at 166.6 +/- 11.9 MBq, iv by PET analysis. The format is ADME, organism-based, Macaca mulatta. The following applies: in vivo.
Data set [4] deals with Hippocampus. Briefly: Standardized uptake value ratio in rhesus monkey hippocampus at 166.6 +/- 11.9 MBq, iv by PET analysis. The format is ADME, organism-based, Macaca mulatta. The following applies: in vivo.
Data set [5] in a line: Standardized uptake value ratio in rhesus monkey globus pallidus at 166.6 +/- 11.9 MBq, iv by PET analysis. It is filed as ADME, organism-based, Macaca mulatta. The following applies: in vivo.
Data set [6] is described as follows: Standardized uptake value ratio in rhesus monkey putamen at 166.6 +/- 11.9 MBq, iv by PET analysis. It is filed as ADME, organism-based, Macaca mulatta. The following applies: in vivo.
Data set [7] can be described thus: Standardized uptake value ratio in rhesus monkey caudate at 166.6 +/- 11.9 MBq, iv by PET analysis. It is filed as ADME, organism-based, Macaca mulatta. Particulars: in vivo.
The subject of data set [8] is Striatum. Briefly: Standardized uptake value ratio in rhesus monkey striatum at 166.6 +/- 11.9 MBq, iv by PET analysis. The following applies: in vivo. The format is ADME, organism-based, Macaca mulatta.
Data set [9] can be described thus: Drug uptake in rhesus monkey cerebellum at 166.6 +/- 11.9 MBq, iv by PET analysis. The format is ADME, organism-based, Macaca mulatta. Particulars: in vivo.
The nature of data set [10]: Drug uptake in rhesus monkey temporal cortex at 166.6 +/- 11.9 MBq, iv by PET analysis. The format is ADME, organism-based, Macaca mulatta. Particulars: in vivo.
Data set [11] can be described thus: Drug uptake in rhesus monkey parietal cortex at 166.6 +/- 11.9 MBq, iv by PET analysis. It is filed as ADME, organism-based, Macaca mulatta. Particulars: in vivo.
Data set [12] in a line: Drug uptake in rhesus monkey occipital cortex at 166.6 +/- 11.9 MBq, iv by PET analysis. The format is ADME, organism-based, Macaca mulatta. The following applies: in vivo.
Data set [13] can be described thus: Drug uptake in rhesus monkey frontal cortex at 166.6 +/- 11.9 MBq, iv by PET analysis. The format is ADME, organism-based, Macaca mulatta. Particulars: in vivo.
Data set [14] is described as follows: Drug uptake in rhesus monkey thalamus at 166.6 +/- 11.9 MBq, iv by PET analysis. It is filed as ADME, organism-based, Macaca mulatta. Particulars: in vivo.
The nature of data set [15]: Drug uptake in rhesus monkey substantia nigra at 166.6 +/- 11.9 MBq, iv by PET analysis. Particulars: in vivo. It is filed as ADME, organism-based, Macaca mulatta.
Data set [16] relates to Hippocampus. Briefly: Drug uptake in rhesus monkey hippocampus at 166.6 +/- 11.9 MBq, iv by PET analysis. It is filed as ADME, organism-based, Macaca mulatta. Particulars: in vivo.
Data set [17] can be described thus: Drug uptake in rhesus monkey globus pallidus at 166.6 +/- 11.9 MBq, iv by PET analysis. The format is ADME, organism-based, Macaca mulatta. Particulars: in vivo.
Data set [18] is described as follows: Drug uptake in rhesus monkey putamen at 166.6 +/- 11.9 MBq, iv by PET analysis. The format is ADME, organism-based, Macaca mulatta. Particulars: in vivo.
Data set [19] in a line: Drug uptake in rhesus monkey caudate at 166.6 +/- 11.9 MBq, iv by PET analysis. It is filed as ADME, organism-based, Macaca mulatta. The following applies: in vivo.
Data set [20] has as its system Striatum. Briefly: Drug uptake in rhesus monkey striatum at 166.6 +/- 11.9 MBq, iv by PET analysis. Particulars: in vivo. It is filed as ADME, organism-based, Macaca mulatta.
In data set [21] the test system is Brain. Description: Drug uptake in rhesus monkey brain at 166.6 +/- 11.9 MBq, iv after 20 mins by PET analysis. The format is ADME, organism-based, Macaca mulatta. The following applies: in vivo.
Data set [22] can be described thus: Octanol-buffer partition coefficient, log D of the compound at pH 7.4 by shake flask method. It is filed as physicochemical.
For data set [23], the target named is Serotonin 4 (5-HT4) receptor (Sus scrofa, UniProt Q6Q253). Description: Binding affinity to 5HT4 receptor in pig striatal membranes. It is filed as cell membranes, Striatum, Membrane.
Chain of Serotonin 4 (5-HT4) receptor (Q6Q253 whole entry): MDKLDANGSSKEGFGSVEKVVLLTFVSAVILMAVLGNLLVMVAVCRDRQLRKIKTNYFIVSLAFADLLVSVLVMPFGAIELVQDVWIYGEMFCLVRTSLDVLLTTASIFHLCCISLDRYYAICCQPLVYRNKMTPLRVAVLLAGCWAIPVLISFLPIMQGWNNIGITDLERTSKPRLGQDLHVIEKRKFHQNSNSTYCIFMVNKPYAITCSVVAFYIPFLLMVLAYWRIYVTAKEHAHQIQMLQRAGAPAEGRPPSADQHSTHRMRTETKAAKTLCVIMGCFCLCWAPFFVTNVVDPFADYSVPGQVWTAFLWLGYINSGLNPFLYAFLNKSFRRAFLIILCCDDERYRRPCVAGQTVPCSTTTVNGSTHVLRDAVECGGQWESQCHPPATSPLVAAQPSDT
Data set [24] relates to Rhesus monkey. Description: Ex vivo receptor occupancy of 5HT4 receptor in rhesus monkey at 0.5 mg/kg. The format is functional, Macaca mulatta.
For data set [25], the target named is 5-hydroxytryptamine receptor 4 (Cavia porcellus, UniProt O70528). Description: Binding affinity to 5HT4 receptor in guinea pig distal colon.
Chain of 5-hydroxytryptamine receptor 4 (Cavia porcellus, UniProt O70528) (O70528 whole entry): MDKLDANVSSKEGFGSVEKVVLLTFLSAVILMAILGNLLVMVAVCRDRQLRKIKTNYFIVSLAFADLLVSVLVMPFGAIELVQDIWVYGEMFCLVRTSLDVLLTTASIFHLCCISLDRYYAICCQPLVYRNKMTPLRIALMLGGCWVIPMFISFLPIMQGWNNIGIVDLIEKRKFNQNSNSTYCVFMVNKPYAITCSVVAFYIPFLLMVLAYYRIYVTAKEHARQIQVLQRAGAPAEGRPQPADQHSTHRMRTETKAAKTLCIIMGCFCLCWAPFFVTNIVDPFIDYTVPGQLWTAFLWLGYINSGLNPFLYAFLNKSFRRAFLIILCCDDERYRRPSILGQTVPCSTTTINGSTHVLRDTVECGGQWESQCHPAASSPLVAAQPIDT

T1 sequence (Q62758 whole entry): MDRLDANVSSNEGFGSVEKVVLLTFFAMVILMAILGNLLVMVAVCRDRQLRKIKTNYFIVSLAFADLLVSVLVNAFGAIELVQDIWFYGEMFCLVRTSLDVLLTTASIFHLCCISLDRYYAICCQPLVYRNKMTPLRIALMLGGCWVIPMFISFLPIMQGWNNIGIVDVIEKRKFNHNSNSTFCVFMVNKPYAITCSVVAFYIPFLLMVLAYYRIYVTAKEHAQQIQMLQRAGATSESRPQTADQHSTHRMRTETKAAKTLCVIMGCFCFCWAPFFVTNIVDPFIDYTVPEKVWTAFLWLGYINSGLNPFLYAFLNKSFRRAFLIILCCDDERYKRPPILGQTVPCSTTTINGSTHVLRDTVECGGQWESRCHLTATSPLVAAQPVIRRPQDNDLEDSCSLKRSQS

Turning to `CCCCN1CCC(COC(=O)c2cc(I)c(N)c3c2OCCO3)CC1`, in [1], the affinity, expressed as Kd, was 0.3 nM.
For the compound `Nc1c(Cl)cc(C(=O)OCC2CCN(CCCF)CC2)c2c1OCCO2`, the Ki in data set [2] stood at 0.07 nM.
The same measure, in the same setting: under `Nc1c(Cl)cc(C(=O)OCC2CCN(CCF)CC2)c2c1OCCO2` stands 0.2 nM.
Take `Nc1c(Cl)cc(C(=O)OCC2CCN(CCC[18F])CC2)c2c1OCCO2`: the SUV in [3], in data set [4], in data set [5], in data set [6], in data set [7] and in data set [8] was 3 each time. In addition, the Drug uptake entry in [9], in data set [10], in data set [11], in data set [12], in data set [13] and in data set [14] was “Active” in each case. Moreover, the Drug uptake result in data set [15], in [16], in data set [17], in data set [18], in data set [19] and in data set [20] was “Active” throughout. In data set [21], this compound showed a Drug uptake of 5.6 %ID. The compound also gave a log distribution coefficient (logD) in data set [22] of 1.4.
As to `Nc1c(Cl)cc(C(=O)OCC2CCN(CC[18F])CC2)c2c1OCCO2`, the SUV in [3], in data set [4], in data set [5], in data set [6], in data set [7] and in [8] was 3 each time. Further, the Drug uptake result in data set [9], in data set [10], in [11], in [12], in [13] and in [14] was “Active” each time. Further, the Drug uptake entry in data set [15], in [16], in data set [17], in [18], in data set [19] and in data set [20] was “Active” throughout. For the same compound, the Drug uptake in data set [21] is given as 6.6 %ID. In data set [22], this compound gave a logD of 1.8.
On to `CN1CCC(COC(=O)c2cc(Cl)c(N)c3c2OCCO3)CC1`, for which the dissociation constant Kd came to 0.3 nM in data set [1] and 0.08 nM in data set [23].
Turning to `CCCCN1CCC(COC(=O)c2cc(Cl)c(N)c3c2OCCO3)CC1`, the Activity in [24] came out at 93%. For the same compound, the affinity in [25], expressed as Kd, was 0.02 nM.
